{
  "source": "ChEMBL document CHEMBL1687706",
  "about": "“Inhibition of human immunodeficiency virus type 1 replication in human cells by Debio-025, a novel cyclophilin binding agent” (Antimicrob Agents Chemother, 2008)",
  "key": {"[1]": {"test": "Cytotoxicity against CRFK", "set-up": "species or system Felis catus", "conditions": "cat, CRFK cells; read-out: TC50 (the source's name)"}, "[2]": {"system": "Human immunodeficiency virus 1", "test": "Antiviral activity against APV, ATV, IDV, LPV, NFV, RTV, SQV, AZT, ddI, 3TC, d4T-resistant HIV-1 MDR1385 infected in human PBMC assessed as inhibition of viral replication by ELISA", "format": "functional, organism-based", "conditions": "Human immunodeficiency virus 1, MDR1385"}, "Coxsackievirus": {"system": "Coxsackievirus", "test": "Antiviral activity against Coxsackie B3 infected in african green monkey Vero cells assessed as inhibition of viral replication", "format": "functional, organism-based"}, "[3]": {"system": "Human immunodeficiency virus 1", "test": "Antiviral activity against HIV1 subtype B ROJO infected in human PBMC assessed as inhibition of viral replication by ELISA", "format": "functional, organism-based", "conditions": "Human immunodeficiency virus 1, subtype B ROJO"}, "Rattus norvegicus [4]": {"system": "Rattus norvegicus", "test": "Immunosuppressive activity in Sprague-Dawley rat KHL model assessed as percent T-helper cells at 50 mg/kg, po administered once daily for 28 days by flow cytometry", "format": "functional"}, "[5]": {"system": "Human papillomavirus type 16", "test": "Antiviral activity against HPV-16 infected in Caski cells assessed as inhibition of viral replication after 3 days", "format": "functional, organism-based, Human papillomavirus 16"}, "[6]": {"test": "Antiviral activity against HPV-33 infected in CK1 cells assessed as inhibition of viral replication after 7 days", "format": "functional, Human papillomavirus type 33", "conditions": "human papillomavirus 33, CK1, 168 h; read-out: TC50 (the source's name)"}, "[7]": {"system": "Simian immunodeficiency virus", "test": "Antiviral activity against Simian immunodeficiency virus PBj infected in human PBMC assessed as inhibition of viral replication by RT activity", "format": "functional, organism-based"}, "[8]": {"test": "Antiviral activity against HPV-33 infected in CK1 cells assessed as inhibition of viral replication after 3 days", "format": "functional, cell-based, Human papillomavirus type 33", "conditions": "human papillomavirus 33, CK1, 72 h; read-out: TC50 (the source's name)"}, "[9]": {"system": "Human immunodeficiency virus 1", "test": "Antiviral activity against HIV1 subtype G Jv1083 infected in human PBMC assessed as inhibition of viral replication by ELISA", "format": "functional, organism-based", "conditions": "Human immunodeficiency virus 1, subtype G Jv1083"}, "[10]": {"system": "Human immunodeficiency virus 1", "test": "Antiviral activity against LPV, APV, ATV, IDV, NFV, RTV, SQV-resistant HIV-1 52-52 infected in human PBMC assessed as inhibition of viral replication by ELISA", "format": "functional, organism-based", "conditions": "Human immunodeficiency virus 1, 52-52"}, "Rattus norvegicus [11]": {"system": "Rattus norvegicus", "test": "Immunosuppressive activity in Sprague-Dawley rat […] model assessed as IgM level at 10 mg/kg, po administered once daily for 28 days by ELISA", "format": "functional"}, "[12]": {"system": "Vesicular stomatitis virus", "test": "Antiviral activity against VSV infected in human embryonic lung cells assessed as inhibition of viral replication", "format": "functional, organism-based"}, "Human alphaherpesvirus 2 [13]": {"system": "Human alphaherpesvirus 2", "test": "Antiviral activity against Herpes simplex virus 2 Lyons infected in human embryonic lung cells assessed as inhibition of viral replication", "format": "functional, organism-based", "conditions": "Human alphaherpesvirus 2, Lyons"}, "[14]": {"system": "Human immunodeficiency virus 1", "test": "microbe, parasite or virus in culture", "conditions": "Human immunodeficiency virus 1, SF2"}, "[15]": {"system": "Human immunodeficiency virus 1", "conditions": "Human immunodeficiency virus 1, 3B"}, "[16]": {"test": "Cytotoxicity against human HeLa cells", "format": "cell-based", "conditions": "read-out: TC50 (the source's name)"}, "[17]": {"test": "Antiviral activity against HPV-18 infected in human HeLa cells assessed as inhibition of viral replication after 3 days", "format": "functional, cell-based", "conditions": "human papillomavirus 18, HeLa, 72 h; read-out: TC50 (the source's name)"}, "PBMC": {"system": "PBMC", "test": "Cytotoxicity against human PBMC at 0.83 uM by MTT assay", "format": "cell-based"}, "[18]": {"system": "Human immunodeficiency virus 1", "test": "Antiviral activity against HIV1 subtype EA CMU02 infected in human PBMC assessed as inhibition of viral replication by ELISA", "format": "functional, organism-based", "conditions": "Human immunodeficiency virus 1, subtype EA CMU02"}, "Hepatitis B virus": {"system": "Hepatitis B virus", "test": "Antiviral activity against HBV infected in human hepAD38 cells assessed as inhibition of viral replication", "format": "functional, organism-based"}, "Rattus norvegicus [19]": {"system": "Rattus norvegicus", "test": "Immunosuppressive activity in Sprague-Dawley rat […] model assessed as percent T lymphocytes at 50 mg/kg, po administered once daily for 28 days by flow cytometry", "format": "functional"}, "Hepatitis C virus": {"system": "Hepatitis C virus", "test": "Antiviral activity against HCV infected in human Huh 5.2 cells assessed as reduction in viral RNA level by luciferase reporter gene assay", "format": "functional, organism-based, Hepacivirus hominis", "conditions": "Huh-5-2"}, "Human alphaherpesvirus 1": {"system": "Human alphaherpesvirus 1", "test": "Antiviral activity against Herpes simplex virus 1 KOS infected in human embryonic lung cells assessed as inhibition of viral replication", "format": "functional, organism-based", "conditions": "Human alphaherpesvirus 1, KOS"}, "[20]": {"system": "Human immunodeficiency virus 1", "test": "Antiviral activity against HIV1 subtype A 92UG037 infected in human PBMC assessed as inhibition of viral replication by ELISA", "format": "functional, organism-based", "conditions": "Human immunodeficiency virus 1, subtype A 92UG037"}, "Human alphaherpesvirus 2 [21]": {"system": "Human alphaherpesvirus 2", "test": "Antiviral activity against Herpes simplex virus 2 G infected in human embryonic lung cells assessed as inhibition of viral replication", "format": "functional, organism-based", "conditions": "Human alphaherpesvirus 2, strain G"}, "[22]": {"system": "Human immunodeficiency virus 1", "test": "Antiviral activity against HIV-1 NL4-3 infected in human TZB cells assessed as inhibition of accumulation of early viral transcripts at 0.5 to 2.5 uM by RT-PCR", "format": "functional, organism-based"}, "[23]": {"test": "Cytotoxicity against human HepAD38 cells", "format": "cell-based", "conditions": "read-out: TC50 (the source's name)"}, "[24]": {"system": "Human immunodeficiency virus 1", "test": "Antiviral activity against APV, ATV, LPV, IDV, NFV, RTV, SQV-resistant HIV-1 1064-52 infected in human PBMC assessed as inhibition of viral replication by ELISA", "format": "functional, organism-based", "conditions": "Human immunodeficiency virus 1, 1064-52"}, "[25]": {"system": "Human immunodeficiency virus 1", "test": "Antiviral activity against HIV-1 NL4-3 infected in human TZB cells assessed as inhibition of accumulation of late viral transcripts at 0.5 to 2.5 uM by RT-PCR", "format": "functional, organism-based"}, "[26]": {"system": "Human immunodeficiency virus 1", "test": "Antiviral activity against APV, ATV, IDV, LPV, NFV, RTV, SQV, 3TC, FTC, ABC, AZT, d4T, ddC, ddI, TDF, EFV, DLV, NVP-resistant HIV-1 MDR769 infected in human PBMC assessed as inhibition of viral replication by ELISA", "format": "functional, organism-based", "conditions": "Human immunodeficiency virus 1, MDR769"}, "[27]": {"system": "Human respiratory syncytial virus", "test": "Antiviral activity against RSV infected in human HeLa cells assessed as inhibition of viral replication"}, "Rattus norvegicus [28]": {"system": "Rattus norvegicus", "test": "Immunosuppressive activity in Sprague-Dawley rat KHL model assessed as percent cytotoxic T cells at 25 mg/kg, po administered once daily for 28 days by flow cytometry", "format": "functional, T-cell"}, "Vaccinia virus": {"system": "Vaccinia virus", "test": "Antiviral activity against Vaccinia virus infected in human embryonic lung cells assessed as reduction in viral yield measured after 3 days", "format": "functional, organism-based", "conditions": "Orthopoxvirus vaccinia, 72 h"}, "Rattus norvegicus [29]": {"system": "Rattus norvegicus", "test": "Immunosuppressive activity in Sprague-Dawley rat KHL model assessed as percent cytotoxic T cells at 10 mg/kg, po administered once daily for 28 days by flow cytometry", "format": "functional, T-cell"}, "Human alphaherpesvirus 3": {"system": "Human alphaherpesvirus 3", "test": "Antiviral activity against VZV OKA infected in human embryonic lung cells assessed as inhibition of", "format": "functional, organism-based", "conditions": "Human alphaherpesvirus 3, OKA"}, "SARS-CoV": {"system": "SARS-CoV", "test": "Antiviral activity against SARS coronavirus infected in african green monkey Vero cells assessed as inhibition of viral replication", "format": "functional, organism-based", "conditions": "Severe acute respiratory syndrome-related coronavirus"}, "[30]": {"test": "Cytotoxicity against human embryonic lung cells", "format": "cell-based", "conditions": "read-out: TC50 (the source's name)"}, "[31]": {"system": "Human immunodeficiency virus 1", "test": "Antiviral activity against ABC, ddC, ddI, TDF, AZT, d4T-resistant HIV-1 G910-6 infected in human PBMC assessed as inhibition of viral replication by ELISA", "format": "functional, organism-based", "conditions": "Human immunodeficiency virus 1, G910-6"}},
  "note": "Active and inactive are the calls of the source. The calls are words filed in the database; no cut-off is given here.",
  "data": [
    {"smiles": "C/C=C/C[C@@H](C)[C@@H](O)[C@H]1C(=O)N[C@@H](CC)C(=O)N(C)[C@H](C)C(=O)N(CC)[C@@H](C(C)C)C(=O)N[C@@H](C(C)C)C(=O)N(C)[C@@H](CC(C)C)C(=O)N[C@@H](C)C(=O)N[C@H](C)C(=O)N(C)[C@@H](CC(C)C)C(=O)N(C)[C@@H](CC(C)C)C(=O)N(C)[C@@H](C(C)C)C(=O)N1C", "note": "[ALISPORIVIR]", "values": [
      {"measurement": "CC50", "setting": "[1]", "result": 10.6, "unit": "µM"},
      {"measurement": "IC50", "setting": "[2]", "result": 0.058, "unit": "µM"},
      {"measurement": "IC50", "setting": "Coxsackievirus", "result": "> 25", "unit": "µM"},
      {"measurement": "IC50", "setting": "[3]", "result": 0.024, "unit": "µM"},
      {"measurement": "Activity", "setting": "Rattus norvegicus [4]", "result": 32.8, "unit": "%"},
      {"measurement": "TC50", "setting": "[5]", "result": 1.2, "unit": "µM"},
      {"measurement": "CC50", "setting": "[6]", "result": 0.6, "unit": "µM"},
      {"measurement": "IC50", "setting": "[7]", "result": 7.97, "unit": "µM"},
      {"measurement": "CC50", "setting": "[8]", "result": 0.4, "unit": "µM"},
      {"measurement": "IC50", "setting": "[9]", "result": 5.53, "unit": "µM"},
      {"measurement": "IC50", "setting": "[10]", "result": 3.12, "unit": "µM"},
      {"measurement": "deltaA", "setting": "Rattus norvegicus [11]", "result": 0.78},
      {"measurement": "IC50", "setting": "[12]", "result": "> 25", "unit": "µM"},
      {"measurement": "IC50", "setting": "Human alphaherpesvirus 2 [13]", "result": "> 25", "unit": "µM"},
      {"measurement": "IC50", "setting": "[14]", "result": 0.063, "unit": "µM"},
      {"measurement": "IC50", "setting": "[15]", "result": 0.064, "unit": "µM"},
      {"measurement": "CC50", "setting": "[16]", "result": 8.2, "unit": "µM"},
      {"measurement": "CC50", "setting": "[17]", "result": 6.5, "unit": "µM"},
      {"measurement": "Activity", "setting": "PBMC", "result": "Non-toxic"},
      {"measurement": "IC50", "setting": "[18]", "result": 5.66, "unit": "µM"},
      {"measurement": "IC50", "setting": "Hepatitis B virus", "result": 4.1, "unit": "µM"},
      {"measurement": "Activity", "setting": "Rattus norvegicus [19]", "result": 50, "unit": "%"},
      {"measurement": "IC50", "setting": "Hepatitis C virus", "result": 0.22, "unit": "µM"},
      {"measurement": "IC50", "setting": "Human alphaherpesvirus 1", "result": "> 25", "unit": "µM"},
      {"measurement": "IC50", "setting": "[20]", "result": 0.016, "unit": "µM"},
      {"measurement": "IC50", "setting": "Human alphaherpesvirus 2 [21]", "result": "> 25", "unit": "µM"},
      {"measurement": "inhibition", "setting": "[22]", "result": "inactive"},
      {"measurement": "CC50", "setting": "[23]", "result": 16.4, "unit": "µM"},
      {"measurement": "IC50", "setting": "[24]", "result": 0.007, "unit": "µM"},
      {"measurement": "inhibition", "setting": "[25]", "result": "Active"},
      {"measurement": "IC50", "setting": "[26]", "result": 0.012, "unit": "µM"},
      {"measurement": "IC50", "setting": "[27]", "result": "> 8.2", "unit": "µM"},
      {"measurement": "Activity", "setting": "Rattus norvegicus [28]", "result": 18, "unit": "%"},
      {"measurement": "IC50", "setting": "Vaccinia virus", "result": "> 25", "unit": "µM"},
      {"measurement": "Activity", "setting": "Rattus norvegicus [29]", "result": 17.6, "unit": "%"},
      {"measurement": "IC50", "setting": "Human alphaherpesvirus 3", "result": 2.5, "unit": "µM"},
      {"measurement": "IC50", "setting": "SARS-CoV", "result": 7.7, "unit": "µM"},
      {"measurement": "CC50", "setting": "[30]", "result": 25, "unit": "µM"},
      {"measurement": "IC50", "setting": "[31]", "result": 0.029, "unit": "µM"}
    ]}
  ]
}
